From patent US20260356820A1, “Pyrrolidine and Imidazolidine Based DNA Polymerase Theta Inhibitors and Use Thereof” (Thomas Jefferson University, priority 2022, published 2026) come the findings set out here.

The target of assay [1] is T1, human Polq polymerase domain (Homo sapiens, UniProt O75417).
T1 sequence (O75417 1792-2590): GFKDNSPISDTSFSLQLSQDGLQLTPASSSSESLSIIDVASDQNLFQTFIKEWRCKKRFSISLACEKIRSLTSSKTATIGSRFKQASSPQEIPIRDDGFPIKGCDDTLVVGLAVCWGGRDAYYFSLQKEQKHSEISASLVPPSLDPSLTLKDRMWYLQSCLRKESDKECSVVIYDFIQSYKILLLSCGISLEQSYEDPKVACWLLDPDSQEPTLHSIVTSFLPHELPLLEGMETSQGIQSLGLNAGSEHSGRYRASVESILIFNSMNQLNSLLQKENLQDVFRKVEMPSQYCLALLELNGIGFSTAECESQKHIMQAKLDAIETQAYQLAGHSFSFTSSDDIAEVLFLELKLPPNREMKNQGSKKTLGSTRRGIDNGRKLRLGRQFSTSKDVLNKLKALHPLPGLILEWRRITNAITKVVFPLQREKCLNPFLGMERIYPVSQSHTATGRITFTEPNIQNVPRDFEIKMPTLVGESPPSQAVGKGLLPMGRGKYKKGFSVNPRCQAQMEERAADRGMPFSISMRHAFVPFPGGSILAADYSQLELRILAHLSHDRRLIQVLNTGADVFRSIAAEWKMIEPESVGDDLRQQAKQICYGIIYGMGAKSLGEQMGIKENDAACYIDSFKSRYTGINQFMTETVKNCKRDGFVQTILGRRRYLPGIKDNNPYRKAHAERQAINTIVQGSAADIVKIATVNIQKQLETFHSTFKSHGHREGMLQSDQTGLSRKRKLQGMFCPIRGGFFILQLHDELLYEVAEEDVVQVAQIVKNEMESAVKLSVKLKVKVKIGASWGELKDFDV
In words: Cy5 fluorescence assay of Polq polymerase domain inhibition. Format: biochemical. The procedure: The following Cy5 fluorescence assay was used to measure the ability of compounds to inhibit Polq polymerase domain in vitro. The fluorescent based assay was performed as follows: 60 nM of the pre-annealed primer-template containing a 5′ Cy5 fluorophore conjugated template strand (SEQ ID NO:3: 5′-/5Cy5/[…]-3′), a downstream complementary oligo conjugated with a 3′ Blackhole quencher (SEQ ID NO:4: 5′-CTAAGCTCACAGTG/3IAbRQSp/-3′) and a primer strand (SEQ ID NO:5: 5′-CTGTCCTGCATGATG-3′) was mixed with 50 uM 2′-deoxyribonucleoside triphosphates (dNTPs), 0.1 mg/mL Bovine serum albumin (BSA), 0.01% NP-40, 10% glycerol, 1 mM dithiothreitol (DTT), 10 mM MgCl2, 25 mM TrisHCl pH 7.8 in the presence of 2.5% DMSO with or without various concentrations (7-point dilution series) of Polq small molecule inhibitors represented by Formula I at 37 °C in a volume of 40 μL.

Assay [2] relates to cell types harboring BRCA2 mutations (PE01, VC8, CAPAN-1; BRCA2-null HCT116 and DLD1). In words: Synergy with PARP inhibitors, clonogenic survival of BRCA2-mutated/null cells. Format: cell-based. The note with it: olaparib as PARP inhibitor, Combenefit software analysis. The source says:
FIG. 3A depicts a representative scatter plot and synergy plot showing clongenic survival of HCT116 BRCA2-null cells treated with varying concentrations of olaparib with DMSO or various concentrations of Example 6. FIG. 3B depicts a representative scatter plot synergy plot showing clongenic survival of DLD1 BRCA2-null cells treated with varying concentrations of olaparib with DMSO or various concentrations of Example 6. FIG. 3C depicts a representative scatter plot synergy plot showing clongenic survival of PE01 cells treated with varying concentrations of olaparib with DMSO or various concentrations of Example 6. FIG. 3D depicts a representative scatter plot synergy plot showing clongenic survival of VC8 cells treated with varying concentrations of olaparib with DMSO or various concentrations of Example 6. FIG. 3E depicts a representative scatter plot synergy plot showing clongenic survival of CAPAN-1 cells treated with varying concentrations of olaparib with DMSO or various concentrations of Example 6. FIG. 3F depicts a representative scatter plot showing clongenic survival of MDA-MB-231 cells following treatment with various concentrations of talazoparib and DMSO or various concentrations of Example 6 and representative images of colony plates. For FIG. 3A through FIG. 3F, data are presented as mean±SEM; n=3; p-values calculated by two-sample t test. […]

By IC50 is commonly meant the concentration that inhibits the measured activity by half. Read a high IC50 as weaker potency. With `CN1CCN(c2cc(C(F)(F)F)cc(C(F)(F)F)c2OC(=O)N(C)c2ccc(F)c(Cl)c2F)C1=O` [Example 8, 2,4-bis(trifluoromethyl)-6-(3-methyl-2-oxoimidazolidin-1-yl)phenyl (3-chloro-2,4-difluorophenyl)(methyl)carbamate], half-maximal inhibition in assay [1] (IC50) was put at 3.4 nM.

The compound `CN(C(=O)Oc1c(N2CCN(CC3(O)CN(C(=O)OC(C)(C)C)C3)C2=O)cc(C(F)(F)F)cc1C(F)(F)F)c1ccc(F)cc1` [Example 23, tert-butyl 3-((3-(2-(((4-fluorophenyl)(methyl)carbamoyl)oxy)-3,5-bis(trifluoromethyl)phenyl)-2-oxoimidazolidin-1-yl)methyl)-3-hydroxyazetidine-1-carboxylate] yielded an IC50 in assay [1] of 1.8 nM. This IC50 lies about 1.9-fold lower than the previous one.

As for `[2H]C([2H])([2H])N(C(=O)Oc1c(N2CCN(CC(O)CN(C)C)C2=O)cc(C(F)(F)F)cc1C(F)(F)F)c1ccc(F)c(Cl)c1F` (centres unmarked) [Example 40, 2-(3-(3-(dimethylamino)-2-hydroxypropyl)-2-oxoimidazolidin-1-yl)-4,6-bis(trifluoromethyl)phenyl (3-chloro-2,4-difluorophenyl)(methyl-d3)carbamate], the IC50 in assay [1] amounted to 6.3 nM. Compared with the last compound, the IC50 is about 3.5-fold higher.

In turn, `CN(C(=O)Oc1c(N2CCNC2=O)cc(C(F)(F)F)cc1C(F)(F)F)c1ccc(F)cc1` [Example 4, 2,4-bis(trifluoromethyl)-6-(2-oxoimidazolidin-1-yl)phenyl (4-fluorophenyl)(methyl)carbamate] had an IC50 in assay [1] of 3.4 nM.

In the case of `CN(C(=O)Oc1c(Cl)cc(Cl)cc1N1CCN(CCO)C1=O)c1ccc(F)cc1` [Example 55, 2,4-dichloro-6-(3-(2-hydroxyethyl)-2-oxoimidazolidin-1-yl)phenyl (4-fluorophenyl)(methyl)carbamate], in assay [1], it took 133 nM to reach half-maximal inhibition (IC50).

Turning to `CN(C(=O)Oc1c(N2CCN(CCO)C2=O)cc(C(F)(F)F)cc1C(F)(F)F)c1ccc(F)cc1` [Example 6, 2,4-bis(trifluoromethyl)-6-(3-(2-hydroxyethyl)-2-oxoimidazolidin-1-yl)phenyl (4-fluorophenyl)(methyl)carbamate], in assay [2], the “synergy with PARP inhibitors (clonogenic survival)” value is reported as “Synergy”. The same compound showed an IC50 in assay [1] of 3.2 nM.

Take `[2H]C([2H])([2H])N(C(=O)Oc1c(N2C[C@@H](O)[C@@H](O)C2)cc(C(F)(F)F)cc1C(F)(F)F)c1ccc(F)cc1` [Example 41]: the IC50 in assay [1] is 5.5 nM.
